Data from patent US20190290710A1, “USE OF GLUC[…] TO ENHANCE RECOMBINANT ADENO-[…] YIELD” (priority 2016, published 2019).
Read-outs that look alike come from different tables or passages of the source.

Key:
HeLa host cell line [1] = type: cell-based
Experimental: A number of cell culture additives including metals, trace supplements, salts, and others, were tested for their ability to increase production of recombinant adeno-associated virus vector (rAAV) by a HeLa host cell line.

HeLa host cell line [2] = assay: rAAV yield by qPCR, HeLa host cell line in shaker flasks, glucocorticoid analogs; type: cell-based; details: shaker flask, 0.1 and 1 μM, 4 days, FIG. 2
Experimental: FIG. 2 is a bar graph depicting the effect of glucocorticoid analogs on rAAV production from a HeLa producer cell line cultured in a shaker flask. Hydrocortisone (hydr), predinosolone (pred) and dexamethasone (dex) were added at the indicated concentrations and after 4 days rAAV yield (GC/ml) was measured by qPCR. Each value represents the mean of two independent experiments.
DNase-resistant particles (DRP) can be quantified by real-time quantitative polymerase chain reaction (qPCR) (DRP-qPCR) in a thermocycler (for example, an iCycler iQ 96-well block format thermocycler (Bio-Rad, Hercules, Calif.)). Samples containing rAAV particles are incubated in the presence of DNase I (100 U/ml; Promega, Madison, Wis.) at 37° C. for 60 min, followed by proteinase K (Invitrogen, Carlsbad, Calif.) digestion (10 U/ml) at 50° C. for 60 min, and then denatured at 95° C. for 30 min. The primer-probe set used should be specific to a non-native portion of the rAAV vector genome, for example, the poly(A) sequence of the protein of interest. […]
Stock solutions of dexamethasone (dex), prednisolone (pred), and hydrocortisone (hydr) dissolved in DMSO were added to the cell culture to final concentrations of 0.1 and 1 μM. After 4 days, rAAV yield was determined by measuring both the secreted (extracellular) and total rAAV in the cell culture harvest by qPCR.

[Ca+2] [calcium]
media precipitation (HeLa host cell line [1]; calcium concentrations higher than 0.19 g/L): causing media precipitation
impact on rAAV yield (HeLa host cell line [1]; supplementation with 0.19 g/L of calcium): minimal impact

[Cu] [copper]
impact on rAAV yield (HeLa host cell line [1]; copper concentration increased from 0.1 μM to 10 μM): No or minimal impact

C[C@]12CCC(=O)C=C1CC[C@@H]1[C@@H]2[C@@H](O)C[C@@]2(C)[C@H]1CC[C@]2(O)C(=O)CO [hydrocortisone]
rAAV yield (extracellular and total) (HeLa host cell line [2]): increased rAAV yield

[Fe] [iron]
impact on rAAV yield (HeLa host cell line [1]; iron concentration increased from 0.1 mg/L to 10 mg/L): No or minimal impact

[Mg+2] [magnesium]
impact on rAAV yield (HeLa host cell line [1]; magnesium concentration increased from 1 mg/L to 30 mg/L): slightly negative impact

C[C@]12C=CC(=O)C=C1CC[C@@H]1[C@@H]2[C@@H](O)C[C@@]2(C)[C@H]1CC[C@]2(O)C(=O)CO [prednisolone]
rAAV yield (extracellular and total) (HeLa host cell line [2]): increased rAAV yield

NCCCCN [putrescine]
effect on rAAV yield (HeLa host cell line [1]): negative effect

NCCCNCCCCNCCCN [spermine]
effect on rAAV yield (HeLa host cell line [1]): negative effect
